Assay results taken from patent US7572794B2, “Anthranilamide pyridinureas as vascular endothelial growth factor (VEGF) receptor kinase inhibitors” (Bayer Schering Pharma AG, priority 2004, dated 2009).

How the values were obtained:
[1] = molecular target: T1, Cytochrome P450 isoenzyme 2C9 (Homo sapiens, UniProt P11712); assay: Cytochrome P450 Inhibition (2C9); format: in vitro ADME; settings: baculovirus/insect cell-expressed human isoenzyme, method of Crespi et al.; read-out: IC50 CYP 2C9
T1 construct: host or cells: baculovirus/insect cells
Protocol: (§1) Cytochrome P450 Inhibition
(§2) The Cytochrome P450 isoenzyme inhibition was performed according to the publication of Crespi et al. (Anal. Biochem., 1997, 248, 188-190) with use of the baculovirus/insect cell-expressed, human Cytochrome P 450 isoenzymes (2C9 and 2C19).

[2] = molecular target: T2, Cytochrome P450 isoenzyme 2C19 (Homo sapiens, UniProt P33261); assay: Cytochrome P450 Inhibition (2C19); format: in vitro ADME; settings: baculovirus/insect cell-expressed human isoenzyme, method of Crespi et al.; read-out: IC50 CYP 2C19
T2 construct: host or cells: baculovirus/insect cells
Protocol: as §1, §2

KDR-Kinase (VEGFR-2) = molecular target: T3, KDR-Kinase (VEGFR-2) (Homo sapiens, UniProt P35968); assay: KDR Kinase Inhibition; format: biochemical; settings: GST-kinase domain fusion construct of KDR; poly(Glu4Tyr) substrate, 32P-ATP, 10 min
T3 construct: GST-kinase domain fusion construct of the KDR kinase; GST
Protocol: Kinase activity was measured with a GST-kinase domain fusion construct of the KDR kinase according to the following protocol to obtain concentration response curves. Components were added into a microtiterplate in the following sequence: 10 μl of inhibitor in threefold final concentration [3% DMSO in buffer (40 mM TrisCl pH 7.5; 1 mM DTT, 1 mM MnCl2, 10 mM MgCl2, 2.5 Promille Polyethyleneglycol 20000)]and 10 μl of substrate mixture [24 μM ATP, 24 μg/ml poly(Glu4Tyr) in buffer, specific activity approx. 500 cpm/pmol ^32P-[…]ATP]. Reaction was started by adding 10 μl of enzyme preparation diluted appropriately in buffer that contains 10 μM vanadate. After incubation for exactly 10 min the reaction was stopped by adding of 10 μl stop solution (250 mM EDTA). 10 μl of the reaction mixture were transferred to phosphocellulose filters. The filters were washed in 0.1% phosphoric acid, dried before meltilex scintillator was applied (Waltac, Perkin-Elmer) and the radioactivity was counted.

T1 sequence (P11712 whole entry): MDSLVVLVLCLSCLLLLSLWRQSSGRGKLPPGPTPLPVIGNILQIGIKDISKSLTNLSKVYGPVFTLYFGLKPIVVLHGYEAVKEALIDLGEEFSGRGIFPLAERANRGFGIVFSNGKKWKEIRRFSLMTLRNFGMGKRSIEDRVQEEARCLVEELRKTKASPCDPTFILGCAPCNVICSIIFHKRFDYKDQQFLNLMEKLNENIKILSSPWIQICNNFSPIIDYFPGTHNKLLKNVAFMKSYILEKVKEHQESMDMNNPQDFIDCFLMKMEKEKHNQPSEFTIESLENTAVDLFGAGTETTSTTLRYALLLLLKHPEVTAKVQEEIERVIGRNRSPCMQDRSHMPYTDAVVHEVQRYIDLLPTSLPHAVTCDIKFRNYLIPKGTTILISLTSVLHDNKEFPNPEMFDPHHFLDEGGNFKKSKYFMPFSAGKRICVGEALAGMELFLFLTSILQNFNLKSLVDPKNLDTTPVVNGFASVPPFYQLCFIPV
T2 sequence (P33261 whole entry): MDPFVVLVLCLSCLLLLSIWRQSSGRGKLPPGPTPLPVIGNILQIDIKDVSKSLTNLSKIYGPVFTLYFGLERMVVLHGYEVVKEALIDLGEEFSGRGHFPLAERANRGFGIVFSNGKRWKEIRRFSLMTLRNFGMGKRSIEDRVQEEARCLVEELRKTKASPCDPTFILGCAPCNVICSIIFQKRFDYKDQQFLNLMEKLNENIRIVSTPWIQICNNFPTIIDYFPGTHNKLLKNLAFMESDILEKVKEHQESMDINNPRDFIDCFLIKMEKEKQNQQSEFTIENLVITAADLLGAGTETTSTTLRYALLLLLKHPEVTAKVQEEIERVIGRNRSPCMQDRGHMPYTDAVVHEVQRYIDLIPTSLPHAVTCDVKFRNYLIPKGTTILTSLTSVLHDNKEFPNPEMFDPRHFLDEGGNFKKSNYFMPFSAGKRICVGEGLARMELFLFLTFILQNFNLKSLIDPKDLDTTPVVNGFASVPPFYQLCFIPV
T3 sequence (P35968 834-1162 limits assumed, species assumed): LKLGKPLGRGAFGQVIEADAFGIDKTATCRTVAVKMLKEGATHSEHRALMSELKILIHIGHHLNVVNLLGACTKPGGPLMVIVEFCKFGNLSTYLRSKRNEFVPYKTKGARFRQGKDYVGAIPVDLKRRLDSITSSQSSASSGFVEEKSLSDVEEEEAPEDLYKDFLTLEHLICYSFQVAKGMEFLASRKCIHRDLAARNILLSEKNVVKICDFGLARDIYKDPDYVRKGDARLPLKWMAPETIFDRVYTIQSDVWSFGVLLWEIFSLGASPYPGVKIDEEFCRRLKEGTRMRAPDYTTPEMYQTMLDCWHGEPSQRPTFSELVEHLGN

IC50 [1]	IC50 [2]	IC50 (KDR-Kinase (VEGFR-2))	SMILES
13 µM	9 µM	0.029 µM	Cn1cc2ccc(NC(=O)c3ccccc3NCc3ccnc(NC(=O)N4CCOCC4)c3)cc2n1 [Example 3.6, morpholine-4-carboxylic acid (4-{[2-(2-methyl-2H-indazol-6-ylcarbamoyl)-phenylamino]-methyl}-pyridin-2-yl)-amide]
4.4 µM	8.9 µM	0.029 µM	CN1CCN(C(=O)Nc2cc(CNc3ccccc3C(=O)Nc3ccc4cn(C)nc4c3)ccn2)CC1 [Example 3.0, 4-methyl-piperazine-1-carboxylic acid (4-{[2-(2-methyl-2H-indazol-6-ylcarbamoyl)-phenylamino]-methyl}-pyridin-2-yl)-amide]
19 µM	12 µM	0.017 µM	Cn1cc2ccc(NC(=O)c3ccccc3NCc3ccnc(NC(=O)N4CCC(O)(C(F)(F)F)CC4)c3)cc2n1 [Example 1.2, 4-hydroxy-4-trifluoromethyl-piperidine-1-carboxylic acid (4-{[2-(2-methyl-2H-indazol-6-ylcarbamoyl)-phenylamino]-methyl}-pyridin-2-yl)-amide]
16 µM	27 µM	0.02 µM	Cn1cc2ccc(NC(=O)c3ccccc3NCc3ccnc(NC(=O)N4CCC(O)CC4)c3)cc2n1 [Example 1.1, 4-hydroxy-piperidine-1-carboxylic acid (4-{[2-(2-methyl-2H-indazol-6-ylcarbamoyl)-phenylamino]-methyl}-pyridin-2-yl)-amide]
